Here are results for two compounds from paper PMC11304383 (Molecular Pharmaceutics, 2024).

Details of series [1]: method as in doi:10.1021/acs.cgd.7b01027. To be noted: cited from earlier work.
The subject of a further series is CYP2C9. On the set-up: method as in PMID 33394101. To be noted: 33 adult NSCLC patients; cited from earlier work.
Series [2] has as its system A549 cells. Description: SRB (sulforhodamine B) cytotoxicity assay. In kind it is cell-based. To be noted: Homo sapiens, read-out: IC50 value. On the procedure:
A cell suspension was made based on cell count, and 5000 cells were seeded per well in a 96-well plate. […] The SRB assay was performed after a 48 h incubation […], and the absorbance at 540 nm was determined using a plate reader.[40]

A further series has as its system CYP3A. On the set-up: method as in PMID 33394101. Particulars: 33 adult NSCLC patients; cited from earlier work.
Series [3] can be described thus: Amorphous solubility, solvent quench method. Particulars: higher in distilled water. In kind it is physicochemical. As for the experimental part: The amorphous solubility of CRT was measured using the solvent quench method, which employed methanol and HPMC as the solvent and crystallization inhibitor, respectively. […] The detailed amorphous solubility methodology can be found in Shete et al. (2021).[39]

The nature of series [4]: Thermodynamic solubility, shake flask method. In kind it is physicochemical. Particulars: phosphate buffer 50 mM pH 6.8, 24 h, 37 °C; read-out: thermodynamic solubility of CRT. On the procedure:
Excess amounts of CRT and CAMs were added to solubility vials (2 mL) containing the buffer. These vials were then subjected to agitation on an orbital shaker for 24 h at 37 °C and 120 rpm. After this incubation period, the pH of the samples was checked and adjusted if necessary just before centrifugation. Centrifugation was carried out at 37 °C, 10,000 rpm, for 10 min, trailed by the collection of the supernatant and its dilution using the mobile phase. The samples were then analyzed by using the HPLC method described below. This experimental procedure was conducted in triplicate (n = 3).
The Shimadzu Prominence UHPLC with a UV detector was used for the analysis. A GraceSmart Brava BDS-C18 column (250 mm × 4.6 mm × 5 μm) was used for chromatographic separation. The mobile phase was given in a gradient manner with 42:50:8% v/v methanol:25 mM phosphate buffer pH 3.0:ACN for 5 min and 50:50% v/v acetonitrile:25 mM phosphate buffer pH 3.0 for 17 min at a flow rate of 1 mL/min.

Series [5] concerns A549 cells. Nature of the series: Cell cycle analysis by flow cytometry (propidium iodide). In kind it is cell-based, human. Particulars: individual IC50 concentrations, 48 h. As for the experimental part: Exponentially growing cells were detached from T-25 cell culture flasks using trypsin and then transferred to sterile Petri plates. The cells were allowed to attach and grow for approximately 24 h. After the attachment period, different treatments were applied to the cells, and the plates were further incubated for 48 h. The media was removed after 48 h of incubation, and the plates were rinsed two times with phosphate buffer. After that, the cells were trypsinized and centrifuged at 4 °C. After centrifugation, the pellet was fixed in 70% ice-cold ethanol for 30 min at 4 °C. The resulting pellet was resuspended in Dulbecco’s phosphate-buffered saline (PBS) to wash the cells. After another round of centrifugation, the supernatant was removed and the pellet was redispersed in a staining solution consisting RNase, propidium iodide, and NP-40. For 20 min, the cell suspension was incubated in the dark at room temperature. The cells were then analyzed with a BD Accuri C6 flow cytometer (BD Biosciences, San Jose, CA, USA).[42]

Series [6] is described as follows: Oral pharmacokinetic study. To be noted: single oral dose 15 mg/kg. In kind it is in vivo, male Wistar rats. On the procedure:
Pharmacokinetic studies were conducted by following the CPCSEA guidelines. MAHE-IAEC (IAEC/KMC/24/2020) approved the study. The study utilized a parallel design, with each group comprising 3 male Wistar rats weighing approximately 200 g, with a variation of ±20 g. Prior to treatment, the rats underwent a 12 h fasting period but were allowed access to water. Treatment A involved administering a dose of 15 mg/kg of CRT, suspended in a 0.5% (w/v) carboxyl methyl cellulose (CMC) aqueous solution. Treatment B consisted of a 15 mg/kg equivalent CRT CAMs suspension prepared in a 0.5% (w/v) CMC vehicle. The animals received 1 mL of the suspension orally via oral gavage. The interested readers are directed to the pharmacokinetic study reported by Yarlagadda et al. (2023) for detailed methodology.[38]

The test system of the next series is P-gp. Further details: method as in doi:10.1016/j.jddst.2022.103431. Particulars: read-out: IC50 value of NRG for P-gp inhibition; cited from earlier work.
Details of series [7]: method as in doi:10.1007/s12247-019-09381-9. Particulars: cited from earlier work.
Setting [8] is: male, Wistar, rat, plasma, n = 3.

Molecules are shown by their SMILES. In brackets after ≈: the same amount, converted by molar mass. Where two headings read alike, the source gives them in different places.

What is called IC50 is the point on the concentration scale where inhibition reaches its midpoint. Broadly, the thermodynamic solubility is the concentration in solution at equilibrium with solid. By Cmax is commonly meant the highest concentration seen after dosing. As a reminder, the MRT is the average time that molecules of a dose stay in the body. For orientation: Tmax means the time at which the peak concentration occurs. The half-life is the time needed for the level to fall by half in the phase considered. A low value points to rapid decline. For the compound `Cc1cc(Nc2ncc(Cl)c(Nc3ccccc3S(=O)(=O)C(C)C)n2)c(OC(C)C)cc1C1CCNCC1` [CRT, ceritinib], the “excess enthalpy of CRT in water” value in series [1] is -0.844 kcal/mol. In the series with CYP2C9, the “improvement of AUC of S-warfarin by CRT” value is 56%. Moreover, the IC50 in the series with A549 cells [2] (A549, 48 h) is 3.53 µM. In addition, in the series on CYP3A, the “enhancement of AUC of midazolam by CRT versus midazolam alone” value is recorded as 5.42 fold and the “enhancement of Cmax of midazolam by CRT versus midazolam alone” value is reported as 1.82 fold. Further, in series [3], the “amorphous solubility of CRT, distilled water versus pH 6.8 phosphate buffer” value was “approximately threefold”. The thermodynamic solubility at 24 h in series [4] amounted to 3.3 µg/mL (≈ 5.91 µM). Moreover, in the series with A549 cells [5], the “%G1 (percentage of cells in G0/G1 phase)” value is listed as 47.1% and the “%G2 (percentage of cells in G2/M phase)” value is 23.9%. Further, the Cmax in [6] (male, Wistar, rat, plasma, po, 15 mg/kg, n = 3, read-out: Cmax of CRT) was determined as 173 ng/mL. Further, in series [6] (setting [8]), the MRT stood at 20.2 ± 0.75 h, the Tmax turned out to be 6 h and the half-life was 22.1 h. Also, the AUC(0-t) in series [6] (male, Wistar, rat, plasma, n = 3, 72 h, read-out: AUC0–t of CRT) came to 3580 ± 218 ng·h/mL. Further, the “Cmax of CRT” value in [6] (n = 3, 15 mg/kg) is 173.26 ± 5.34 ng/mL.

On to `C[C@@H]1O[C@@H](O[C@H]2[C@H](Oc3cc(O)c4c(c3)O[C@H](c3ccc(O)cc3)CC4=O)O[C@H](CO)[C@@H](O)[C@@H]2O)[C@H](O)[C@H](O)[C@H]1O` [NRG, naringin], for which the IC50 in the series on P-gp is 2400 µM; with A549 cells [2] (A549, SRB, 48 h incubation), 162 µM. Besides, the “glass transition event temperature” value in [7] is 167 °C.
